# Data as given in patent US20130204033A1, “ANTIPROLIFERATIVE COMPOUNDS, CONJUGATES THEREOF, METHODS THEREFOR, AND USES THEREOF” (Medarex, Inc., priority 2009, published 2013).
# pEC50: −log10 of the molar value. Read-outs that look alike come from different tables or passages of the source.
# Columns and labels:
# Type in all cases: cell-based, human
# [1] = system: ZR-75; assay: ATP luminescence proliferation assay, ZR-75; conditions: ATP luminescence
# Description: (§1) This example generally describes the procedures used to assay the antiproliferative activity of compounds of this invention or their conjugates. Human tumor cell lines were obtained from the American Type Culture Collection (ATCC), P.O. Box 1549, Manassas, Va. 20108, USA, and cultured according to instruction from the ATCC. Cells were seeded at 1.0×10^3 or 1.0×10^4 cells/well in 96-well plates for 3 h for ATP assays or ^3H thymidine assays, respectively. 1:3 serial dilutions of free (unconjugated) compounds or their conjugates were added to the wells. Plates were allowed to incubate for 24 to 72 h. The ^3H thymidine plates were pulsed with 1.0 μCi of ^3H-thymidine per well for the last 24 hours of the total incubation period, harvested, and read on a Top Count Scintillation Counter (Packard Instruments, Meriden, Conn.). ATP levels in the ATP plates were measured using the […]-GLO® Luminescent Cell Viability kit following the manufacturer's manual and read on a GLOMAX® 20/20 luminometer (both from Promega, Madison, Wis., USA). The EC50 values—the concentration at which an agent inhibits or reduces cell proliferation by 50% —were determined using PRISM™ software, version 4.0 (GraphPad Software, La Jolla, Calif., USA).
# (§2) Using the ^3H thymidine or the ATP luminescence assay, or both, the activities of compounds of this invention were assayed against the following cancer cell lines: HCT-15 (colorectal cancer, multi-drug resistant (MDR)); Hep3B (liver cancer); LNCaP (prostate cancer, androgen receptor positive (AR^+)); MDA-MB-231 (breast cancer, estrogen receptor, progesterone receptor, and Her2 negative (triple negative)); A2058 (melanoma); U-87 MG (glioblastoma); NCI-H460 (NSCLC); A549 (NSCLC); HPAC (pancreatic cancer, primary); PC3 (prostate cancer, AR); BT474 (breast cancer, Her2 highly positive (Her2hi)); SKOV3 (ovarian cancer, Her2hi); 786-O (renal cancer); UO-31 (renal cancer, MDR); NCI-H740 (SCLC); DMS53 (SCLC); SK-BR3 (breast cancer, Her2hi); ZR-75 (breast cancer, estrogen receptor positive); OVCAR3 (ovarian cancer); HL-60 (APL); OVCAR8/Adr (ovarian cancer, MDR); CEM-Cl (ALL); Nomo-1 (AML); RPMI-8226 (MM)); Raji (lymphoma); SW-480 (colorectal cancer, metastatic); SW-620 (colorectal cancer); and H226 (lung cancer). (Not all compounds were assayed against all cell lines.)
# (§3) Table 3 provides the data for the ATP luminescence proliferation assays, with an incubation period of 48, 72, or 96 h, as noted.
# [2] = system: SW-620; assay: ATP luminescence proliferation assay, SW-620; conditions: ATP luminescence, SW-620, 96 h incubation, read-out: EC50 SW-620 (96 h)
# Description: as §1, §2, §3
# [3] = system: SKOV3; assay: ATP luminescence proliferation assay, SKOV3; conditions: ATP luminescence
# Description: as §1, §2, §3
# [4] = system: HCT-15; assay: ATP luminescence proliferation assay, HCT-15; conditions: ATP luminescence, HCT-15, 72 h incubation, read-out: EC50 HCT-15 (72 h)
# Description: as §1, §2, §3
# [5] = system: 786-O; assay: ATP luminescence proliferation assay, 786-O; conditions: ATP luminescence, 786-O
# Method in brief: (§4)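 Read-out: luminescent ATP cell viability after 48, 72 or 96 h incubation, as noted, with 1:3 serial dilutions of unconjugated compounds or their conjugates. Plating was 1.0×10^3 cells/well, 3 h before dosing. EC50 = concentration giving 50% inhibition of proliferation.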
# [6] = system: HPAC; assay: ATP luminescence proliferation assay, HPAC; conditions: ATP luminescence, 72 h incubation, read-out: EC50 HPAC (72 h)
# Description: as §1, §2, §3
# [7] = system: SW-480; assay: ATP luminescence proliferation assay, SW-480; conditions: ATP luminescence, SW480, 96 h incubation, read-out: EC50 SW480 (96 h)
# Description: as §1, §2, §3
# [8] = system: RPMI-8226; assay: ATP luminescence proliferation assay, RPMI-8226; conditions: ATP luminescence, RPMI-8226, 72 h incubation, read-out: EC50 RPMI-8226 (72 h)
# Description: as §1, §2, §3
# [9] = system: CEM-Cl; assay: ATP luminescence proliferation assay, CEM-C1; conditions: ATP luminescence, CEM-C1, 72 h incubation, read-out: EC50 CEM-C1 (72 h)
# Description: as §1, §2, §3
# [10] = system: 786-O; assay: 3H thymidine proliferation assay, 786-O; conditions: 3H thymidine method, 72 h incubation, read-out: EC50, 786-O
# Description: as §1, §2
# (§5) Table 2 provides the data for proliferation assays using the ^3H thymidine method, with an incubation period of 72 h.
# [11] = system: PC3; assay: 3H thymidine proliferation assay, PC3; conditions: 3H thymidine method, 72 h incubation, read-out: EC50, PC3
# Description: as §1, §2, §5
# [12] = system: NCI-H460; assay: ATP luminescence proliferation assay, NCI-H460; conditions: ATP luminescence, NCI-H460, 72 h incubation, read-out: EC50 NCI-H460 (72 h)
# Description: as §1, §2, §3
# [13] = system: SK-BR3; assay: 3H thymidine proliferation assay, SK-BR3; conditions: 3H thymidine method, 72 h incubation
# Description: as §1, §2, §5
# [14] = system: U-87 MG; assay: 3H thymidine proliferation assay, U-87 MG; conditions: 3H thymidine method, 72 h incubation, read-out: EC50, U-87 MG
# Description: as §1, §2, §5
# [15] = system: HL-60; assay: ATP luminescence proliferation assay, HL-60; conditions: ATP luminescence, HL-60, 72 h incubation, read-out: EC50 HL-60 (72 h)
# Method in brief: as §4
# [16] = system: NCI-H460; assay: 3H thymidine proliferation assay, NCI-H460; conditions: 3H thymidine method, 72 h incubation, read-out: EC50, NCI-H460
# Description: as §1, §2, §5
# [17] = system: HPAC; assay: 3H thymidine proliferation assay, HPAC; conditions: 3H thymidine method, 72 h incubation, read-out: EC50, HPAC
# Description: as §1, §2, §5
# [18] = system: MDA-MB-231; assay: 3H thymidine proliferation assay, MDA-MB-231; conditions: 3H thymidine method, 72 h incubation, read-out: EC50, MDA-MB-231
# Description: as §1, §2, §5
# [19] = ZR-75, 48 h incubation, read-out: EC50 ZR-75 (48 h)
# [20] = SKOV3, 72 h incubation, read-out: EC50 SKOV3 (72 h)
# [21] = 72 h incubation, read-out: EC50 786-O (72 h)
# [22] = Homo sapiens, ZR75, ZR-75, 72 h incubation, read-out: EC50 ZR-75 (72 h)
# [23] = Homo sapiens, SK-OV-3, SKOV3, 48 h incubation, read-out: EC50 SKOV3 (48 h)
# [24] = Homo sapiens, 786-0, 48 h incubation, read-out: EC50 786-O (48 h)
Structure (SMILES),"pEC50 [1, 19]",pEC50 [2],"pEC50 [3, 20]",pEC50 [4],"pEC50 [5, 21]",pEC50 [6],pEC50 [7],pEC50 [8],pEC50 [9],pEC50 [10],pEC50 [11],pEC50 [12],pEC50 [13],pEC50 [14],pEC50 [16],pEC50 [17],"pEC50 [1, 22]",pEC50 ([2]; Homo sapiens),"pEC50 [3, 23]",pEC50 ([4]; Homo sapiens),other results
CCC[C@H](NC(=O)[C@H](Cc1ccccc1)NC(=O)c1csc([C@@H](C[C@H](C(C)C)N(C)C(=O)[C@@H](NC(=O)[C@H]2CCCCN2C)[C@@H](C)CC)OC)n1)C(=O)OC [Compound 19],7.70,7.85,7.82,6.61,7.40,9.48,7.28,8.02,7.96,< 7.00,< 7.00,7.37,< 7.00,< 7.00,< 7.00,< 7.00,–,–,–,–,pEC50 [15]: 8.11
CC[C@H](C)[C@H](NC(=O)[C@H]1CCCCN1C)C(=O)N(C)[C@H](C[C@@H](OC)c1nc(C(=O)N[C@@H](Cc2ccc(N)cc2)CC(C)C(=O)O)cs1)C(C)C (some centres unmarked) [Compound 51],7.72,8.19,8.00,7.03,7.72,8.35,7.89,8.28,8.32,8.00,8.25,7.85,< 7.00,9.12,8.14,8.19,–,–,–,–,pEC50 [18]: 8.06
"Nc1ccc(C(=O)Nc2ccc3[nH]c(C(=O)N4C[C@@H](CCl)c5c4cc(O)c4ccccc54)cc3c2)cc1 [CBI, reference compound]",–,–,–,–,–,–,–,–,–,–,–,–,–,–,–,–,8.66,9.48,8.52,8.47,"pEC50 [5, 24]: 8.80; pEC50 ([6]; Homo sapiens): 8.22; pEC50 ([7]; Homo sapiens): 9.04; pEC50 ([8]; Homo sapiens): 8.39; pEC50 ([9]; Homo sapiens): 9.26; pEC50 ([10]; Homo sapiens, 786-0): 10.46; pEC50 ([11]; Homo sapiens, PC-3): 10.31; pEC50 ([12]; Homo sapiens): 9.19; pEC50 ([18]; Homo sapiens, MDA-MB-231): 10.72; pEC50 ([14]; Homo sapiens, U-87 MG): 9.85; pEC50 ([15]; Homo sapiens): 9.12; pEC50 ([16]; Homo sapiens, NCI-H460): 10.38; pEC50 ([17]; Homo sapiens, HPAC): 10.20"
"COc1cccc2c1C(=O)c1c(O)c3c(c(O)c1C2=O)C[C@@](O)(C(=O)CO)C[C@@H]3O[C@H]1C[C@H](N)[C@H](O)[C@H](C)O1 [Dox, doxorubicin, reference compound]",–,–,–,–,–,–,–,–,–,–,–,–,–,–,–,–,6.63,6.84,6.17,6.22,"pEC50 [5, 24]: 6.44; pEC50 ([6]; Homo sapiens): 6.67; pEC50 ([7]; Homo sapiens): 6.67; pEC50 ([8]; Homo sapiens): 6.46; pEC50 ([9]; Homo sapiens): 6.79; pEC50 ([10]; Homo sapiens, 786-0): 6.77; pEC50 ([11]; Homo sapiens, PC-3): 6.56; pEC50 ([12]; Homo sapiens): 7.04; pEC50 ([18]; Homo sapiens, MDA-MB-231): 6.88; pEC50 ([14]; Homo sapiens, U-87 MG): 6.97; pEC50 ([15]; Homo sapiens): 6.83; pEC50 ([16]; Homo sapiens, NCI-H460): 7.00; pEC50 ([17]; Homo sapiens, HPAC): 6.90"
